Assay results from article PMC4979471 (Cell Death Discovery, 2015).
Read-outs that look alike come from different tables or passages of the source.

Key:
Assay in all cases: Kinase selectivity, P33-radiolabeled assay
Type in all cases: biochemical
Settings in all cases: 10 μM ATP
[1] = target: T1, ACK1 (Homo sapiens, UniProt Q07912)
T1 construct: purchased Reaction Biology Corp
Procedure: (§1) The compound was tested at a single dose in duplicate at 10 μM. Reactions were carried out at 10 μM ATP. Data are reported as % enzyme activity (relative to DMSO controls). The full data set is shown in the Supplementary Table I.

[2] = target: T2, TTBK1 (Homo sapiens, UniProt Q5TCY1)
T2 construct: purchased Reaction Biology Corp
Procedure: as §1

[3] = target: T3, RSK2 (Homo sapiens, UniProt P51812)
T3 construct: purchased Reaction Biology Corp
Procedure: as §1

[4] = target: T4, CDK9/cyclin T1 (Homo sapiens, UniProt P50750)
T4 construct: purchased Reaction Biology Corp
Procedure: as §1

[5] = target: T5, MYLK3 (Homo sapiens, UniProt Q32MK0)
T5 construct: purchased Reaction Biology Corp
T5 sequence (Q32MK0 1-819): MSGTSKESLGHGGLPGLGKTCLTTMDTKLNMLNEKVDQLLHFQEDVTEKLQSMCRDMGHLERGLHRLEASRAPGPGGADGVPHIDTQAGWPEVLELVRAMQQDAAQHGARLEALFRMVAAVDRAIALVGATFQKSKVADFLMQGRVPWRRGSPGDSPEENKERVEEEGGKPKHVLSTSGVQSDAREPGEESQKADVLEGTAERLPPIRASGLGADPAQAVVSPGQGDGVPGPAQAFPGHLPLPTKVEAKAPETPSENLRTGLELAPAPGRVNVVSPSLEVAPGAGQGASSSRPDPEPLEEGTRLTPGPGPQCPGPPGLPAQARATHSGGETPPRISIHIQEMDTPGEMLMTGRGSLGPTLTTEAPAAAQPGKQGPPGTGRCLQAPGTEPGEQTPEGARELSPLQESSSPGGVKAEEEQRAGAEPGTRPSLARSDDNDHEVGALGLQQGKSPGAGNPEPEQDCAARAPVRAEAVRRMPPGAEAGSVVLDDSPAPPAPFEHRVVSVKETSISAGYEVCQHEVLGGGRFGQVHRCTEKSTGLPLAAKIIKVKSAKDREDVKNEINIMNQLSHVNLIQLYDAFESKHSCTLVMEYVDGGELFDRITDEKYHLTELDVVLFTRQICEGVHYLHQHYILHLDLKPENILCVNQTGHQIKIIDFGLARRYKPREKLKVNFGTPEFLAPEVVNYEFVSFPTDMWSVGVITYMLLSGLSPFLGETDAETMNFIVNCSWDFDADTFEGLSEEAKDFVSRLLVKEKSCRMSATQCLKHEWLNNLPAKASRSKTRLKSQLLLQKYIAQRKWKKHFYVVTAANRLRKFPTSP
Procedure: as §1

[6] = target: T6, TRKA (Homo sapiens, UniProt P04629)
T6 construct: purchased Reaction Biology Corp
Procedure: as §1

[7] = target: T7, c-Kit (Homo sapiens, UniProt P10721)
T7 construct: purchased Reaction Biology Corp
Procedure: as §1

[8] = target: T8, PIM3 (Homo sapiens, UniProt Q86V86)
T8 construct: purchased Reaction Biology Corp
Procedure: as §1

[9] = target: T9, CDK7/cyclin H (Homo sapiens, UniProt P50613)
T9 construct: purchased Reaction Biology Corp
Procedure: as §1

[10] = target: T10, P38d/MAPK13 (Homo sapiens, UniProt O15264)
T10 construct: purchased Reaction Biology Corp
T10 sequence (O15264 1-365): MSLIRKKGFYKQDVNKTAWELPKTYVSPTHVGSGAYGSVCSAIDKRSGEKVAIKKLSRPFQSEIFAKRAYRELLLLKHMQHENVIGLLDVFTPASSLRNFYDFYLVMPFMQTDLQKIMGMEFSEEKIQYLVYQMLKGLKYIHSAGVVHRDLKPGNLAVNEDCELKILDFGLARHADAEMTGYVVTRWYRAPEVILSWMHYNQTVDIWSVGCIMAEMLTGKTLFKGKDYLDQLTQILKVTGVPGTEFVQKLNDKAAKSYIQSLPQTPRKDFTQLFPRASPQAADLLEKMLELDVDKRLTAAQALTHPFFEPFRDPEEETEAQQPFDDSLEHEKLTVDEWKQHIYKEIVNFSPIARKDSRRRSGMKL
Procedure: as §1

[11] = target: T11, STK38L/NDR2 (Homo sapiens, UniProt Q9Y2H1)
T11 construct: purchased Reaction Biology Corp
Procedure: as §1

[12] = target: T12, GSK3a (Homo sapiens, UniProt P49840)
T12 construct: purchased Reaction Biology Corp
Procedure: as §1

[13] = target: T13, CK2a (Homo sapiens, UniProt P68400)
T13 construct: purchased Reaction Biology Corp
Procedure: as §1

[14] = target: T14, PKAcb (Homo sapiens, UniProt P22694)
T14 construct: purchased Reaction Biology Corp
Procedure: as §1

[15] = read-out: % Enzyme Activity (relative to DMSO controls) AVG
[16] = read-out: % Enzyme Activity (relative to DMSO controls) Data 1
[17] = read-out: % Enzyme Activity (relative to DMSO controls) Data 2

T11 sequence (Q9Y2H1 whole entry): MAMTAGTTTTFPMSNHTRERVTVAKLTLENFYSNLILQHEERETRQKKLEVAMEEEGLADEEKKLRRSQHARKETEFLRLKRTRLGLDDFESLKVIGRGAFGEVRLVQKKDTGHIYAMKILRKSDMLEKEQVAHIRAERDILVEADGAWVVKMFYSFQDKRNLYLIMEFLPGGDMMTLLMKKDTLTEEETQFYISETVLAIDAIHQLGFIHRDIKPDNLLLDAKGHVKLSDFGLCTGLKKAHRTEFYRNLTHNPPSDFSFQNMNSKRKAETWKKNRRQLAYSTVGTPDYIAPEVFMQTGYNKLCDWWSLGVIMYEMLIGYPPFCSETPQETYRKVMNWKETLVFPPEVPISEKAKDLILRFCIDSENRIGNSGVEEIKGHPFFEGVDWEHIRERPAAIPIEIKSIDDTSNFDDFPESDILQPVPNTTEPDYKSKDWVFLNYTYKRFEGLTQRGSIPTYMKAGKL
T9 sequence (P50613 whole entry): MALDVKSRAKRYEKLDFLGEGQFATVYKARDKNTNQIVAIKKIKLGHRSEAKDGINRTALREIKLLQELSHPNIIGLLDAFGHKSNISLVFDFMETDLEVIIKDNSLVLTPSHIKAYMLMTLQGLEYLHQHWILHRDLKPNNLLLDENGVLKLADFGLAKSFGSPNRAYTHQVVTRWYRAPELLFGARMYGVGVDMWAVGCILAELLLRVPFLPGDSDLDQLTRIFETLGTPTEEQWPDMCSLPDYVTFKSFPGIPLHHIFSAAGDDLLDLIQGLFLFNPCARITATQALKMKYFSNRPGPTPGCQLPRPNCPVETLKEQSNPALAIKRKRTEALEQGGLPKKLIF
T9 sequence (P51946 whole entry partner): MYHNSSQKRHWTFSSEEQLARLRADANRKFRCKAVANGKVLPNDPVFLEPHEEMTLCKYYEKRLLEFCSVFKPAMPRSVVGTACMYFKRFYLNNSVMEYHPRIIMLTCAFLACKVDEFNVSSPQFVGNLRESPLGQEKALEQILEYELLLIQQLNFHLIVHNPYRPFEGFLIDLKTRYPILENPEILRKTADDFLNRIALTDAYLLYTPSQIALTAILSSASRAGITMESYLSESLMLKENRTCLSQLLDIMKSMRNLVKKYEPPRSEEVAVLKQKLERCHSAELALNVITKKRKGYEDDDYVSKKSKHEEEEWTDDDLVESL
T9 sequence (P51948 whole entry partner): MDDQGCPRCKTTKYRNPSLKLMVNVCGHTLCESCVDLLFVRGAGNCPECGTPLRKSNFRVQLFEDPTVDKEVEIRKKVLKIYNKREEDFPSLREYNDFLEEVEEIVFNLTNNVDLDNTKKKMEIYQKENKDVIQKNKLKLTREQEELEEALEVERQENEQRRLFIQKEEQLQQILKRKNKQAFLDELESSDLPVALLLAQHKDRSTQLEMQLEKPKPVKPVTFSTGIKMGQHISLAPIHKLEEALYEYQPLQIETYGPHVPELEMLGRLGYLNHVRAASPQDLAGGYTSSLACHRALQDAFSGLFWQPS
T12 sequence (P49840 whole entry): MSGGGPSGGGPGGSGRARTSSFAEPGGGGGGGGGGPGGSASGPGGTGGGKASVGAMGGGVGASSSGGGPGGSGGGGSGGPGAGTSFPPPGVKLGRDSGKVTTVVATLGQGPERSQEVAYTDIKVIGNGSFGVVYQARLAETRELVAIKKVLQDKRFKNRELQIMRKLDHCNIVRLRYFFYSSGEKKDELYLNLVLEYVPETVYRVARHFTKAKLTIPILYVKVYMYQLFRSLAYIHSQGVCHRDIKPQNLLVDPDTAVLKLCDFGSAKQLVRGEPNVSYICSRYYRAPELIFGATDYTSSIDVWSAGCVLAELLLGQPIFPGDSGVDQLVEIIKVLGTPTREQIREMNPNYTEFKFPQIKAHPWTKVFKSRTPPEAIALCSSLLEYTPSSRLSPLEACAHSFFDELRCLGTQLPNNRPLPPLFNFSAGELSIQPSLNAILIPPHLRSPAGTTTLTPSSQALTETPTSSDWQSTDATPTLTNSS
T4 sequence (P50750 whole entry): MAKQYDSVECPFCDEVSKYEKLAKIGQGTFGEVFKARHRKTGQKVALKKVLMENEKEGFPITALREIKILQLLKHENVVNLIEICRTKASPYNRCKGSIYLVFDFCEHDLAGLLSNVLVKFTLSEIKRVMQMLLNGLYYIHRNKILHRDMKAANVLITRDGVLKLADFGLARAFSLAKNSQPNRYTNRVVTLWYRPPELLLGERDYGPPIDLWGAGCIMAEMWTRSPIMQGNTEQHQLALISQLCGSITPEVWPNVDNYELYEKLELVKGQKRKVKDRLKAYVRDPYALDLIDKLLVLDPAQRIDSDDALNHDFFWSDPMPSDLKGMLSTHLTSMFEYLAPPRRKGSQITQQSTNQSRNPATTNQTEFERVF
T4 sequence (O60563 whole entry partner): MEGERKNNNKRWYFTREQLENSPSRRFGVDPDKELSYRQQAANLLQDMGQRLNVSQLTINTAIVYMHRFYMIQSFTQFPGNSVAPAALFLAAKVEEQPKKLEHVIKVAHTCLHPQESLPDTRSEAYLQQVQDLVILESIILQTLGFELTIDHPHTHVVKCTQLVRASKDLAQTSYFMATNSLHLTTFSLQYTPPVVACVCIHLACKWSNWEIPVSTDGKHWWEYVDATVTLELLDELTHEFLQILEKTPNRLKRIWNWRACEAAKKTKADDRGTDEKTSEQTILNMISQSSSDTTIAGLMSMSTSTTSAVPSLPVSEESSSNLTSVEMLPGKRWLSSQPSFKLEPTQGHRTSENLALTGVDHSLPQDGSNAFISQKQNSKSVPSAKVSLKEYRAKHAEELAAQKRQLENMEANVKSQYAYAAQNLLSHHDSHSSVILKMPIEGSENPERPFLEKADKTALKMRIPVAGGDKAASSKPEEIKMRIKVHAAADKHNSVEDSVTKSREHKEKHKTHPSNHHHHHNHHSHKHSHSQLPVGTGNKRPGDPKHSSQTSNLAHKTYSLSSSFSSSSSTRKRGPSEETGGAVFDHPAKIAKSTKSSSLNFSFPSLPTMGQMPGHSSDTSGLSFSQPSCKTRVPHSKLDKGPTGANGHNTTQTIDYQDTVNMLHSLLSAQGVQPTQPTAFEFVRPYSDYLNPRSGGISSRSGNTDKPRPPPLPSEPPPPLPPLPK
T13 sequence (P68400 whole entry): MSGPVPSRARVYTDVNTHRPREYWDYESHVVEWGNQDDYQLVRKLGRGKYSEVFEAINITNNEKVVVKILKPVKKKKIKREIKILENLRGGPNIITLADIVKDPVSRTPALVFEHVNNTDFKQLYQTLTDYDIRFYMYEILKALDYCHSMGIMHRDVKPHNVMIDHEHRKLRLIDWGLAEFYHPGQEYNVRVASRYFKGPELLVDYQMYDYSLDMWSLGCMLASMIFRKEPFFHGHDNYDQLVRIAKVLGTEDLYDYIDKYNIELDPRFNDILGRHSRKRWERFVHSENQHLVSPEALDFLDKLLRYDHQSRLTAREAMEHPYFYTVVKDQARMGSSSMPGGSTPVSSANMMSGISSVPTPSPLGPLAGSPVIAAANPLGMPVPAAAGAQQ
T1 sequence (Q07912 whole entry): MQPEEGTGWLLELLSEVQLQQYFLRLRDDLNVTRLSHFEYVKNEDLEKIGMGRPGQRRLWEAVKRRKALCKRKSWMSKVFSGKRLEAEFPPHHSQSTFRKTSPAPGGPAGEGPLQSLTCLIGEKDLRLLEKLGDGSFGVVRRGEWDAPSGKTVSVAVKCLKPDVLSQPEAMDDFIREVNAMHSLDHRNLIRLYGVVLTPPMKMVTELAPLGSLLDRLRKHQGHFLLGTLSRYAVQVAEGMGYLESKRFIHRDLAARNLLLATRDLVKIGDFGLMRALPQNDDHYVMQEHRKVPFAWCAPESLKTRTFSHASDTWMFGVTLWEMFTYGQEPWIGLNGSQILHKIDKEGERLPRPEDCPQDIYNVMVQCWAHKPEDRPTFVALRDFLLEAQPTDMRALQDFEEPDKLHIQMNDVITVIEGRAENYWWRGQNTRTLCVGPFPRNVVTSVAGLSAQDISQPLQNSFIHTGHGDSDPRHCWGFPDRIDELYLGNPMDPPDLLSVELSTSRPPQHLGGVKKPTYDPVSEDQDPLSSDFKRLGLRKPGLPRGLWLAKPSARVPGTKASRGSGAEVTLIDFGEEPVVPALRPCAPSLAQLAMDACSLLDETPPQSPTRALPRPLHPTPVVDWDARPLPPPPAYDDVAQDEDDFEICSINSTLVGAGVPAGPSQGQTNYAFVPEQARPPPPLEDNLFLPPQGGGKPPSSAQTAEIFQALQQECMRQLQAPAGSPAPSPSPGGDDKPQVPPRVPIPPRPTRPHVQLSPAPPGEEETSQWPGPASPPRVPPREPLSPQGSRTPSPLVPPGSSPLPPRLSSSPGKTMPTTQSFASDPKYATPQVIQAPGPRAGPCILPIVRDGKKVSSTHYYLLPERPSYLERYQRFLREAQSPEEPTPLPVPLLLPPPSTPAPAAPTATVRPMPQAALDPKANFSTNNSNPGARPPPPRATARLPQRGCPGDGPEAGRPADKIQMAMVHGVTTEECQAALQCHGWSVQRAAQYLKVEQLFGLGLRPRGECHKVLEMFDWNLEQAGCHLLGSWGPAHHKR

## CC(C)(C)C(=O)N1N=CC[C@H]1c1ccccc1 [GSK′963]
[1]; [15]
  remaining activity at 10 µM: 82.3%
[1]; [16]
  remaining activity at 10 µM: 84.2%
[1]; [17]
  remaining activity at 10 µM: 80.3%
[2]; [15]
  remaining activity at 10 µM: 110%
[2]; [16]
  remaining activity at 10 µM: 109%
[2]; [17]
  remaining activity at 10 µM: 111%
[3]; [15]
  remaining activity at 10 µM: 106%
[3]; [16]
  remaining activity at 10 µM: 107%
[3]; [17]
  remaining activity at 10 µM: 106%
[4]; [15]
  remaining activity at 10 µM: 108%
[4]; [16]
  remaining activity at 10 µM: 112%
[4]; [17]
  remaining activity at 10 µM: 105%
[5]; [15]
  remaining activity at 10 µM: 102%
[5]; [16]
  remaining activity at 10 µM: 99.7%
[5]; [17]
  remaining activity at 10 µM: 105%
[6]; [15]
  remaining activity at 10 µM: 99.8%
[6]; [16]
  remaining activity at 10 µM: 98.2%
[6]; [17]
  remaining activity at 10 µM: 101%
[7]; [15]
  remaining activity at 10 µM: 83.6%
[7]; [16]
  remaining activity at 10 µM: 83%
[7]; [17]
  remaining activity at 10 µM: 84.1%
[8]; [15]
  remaining activity at 10 µM: 116%
[8]; [16]
  remaining activity at 10 µM: 119%
[8]; [17]
  remaining activity at 10 µM: 113%
[9]; [15]
  remaining activity at 10 µM: 96.7%
[9]; [16]
  remaining activity at 10 µM: 98.8%
[9]; [17]
  remaining activity at 10 µM: 94.6%
[10]; [15]
  remaining activity at 10 µM: 100%
[10]; [16]
  remaining activity at 10 µM: 99.8%
[10]; [17]
  remaining activity at 10 µM: 101%
[11]; [15]
  remaining activity at 10 µM: 99.8%
[11]; [16]
  remaining activity at 10 µM: 101%
[11]; [17]
  remaining activity at 10 µM: 98.1%
[12]; [15]
  remaining activity at 10 µM: 111%
[12]; [16]
  remaining activity at 10 µM: 107%
[12]; [17]
  remaining activity at 10 µM: 114%
[13]; [15]
  remaining activity at 10 µM: 99.4%
[13]; [16]
  remaining activity at 10 µM: 105%
[13]; [17]
  remaining activity at 10 µM: 93.8%
[14]; [15]
  remaining activity at 10 µM: 111%
[14]; [16]
  remaining activity at 10 µM: 110%
[14]; [17]
  remaining activity at 10 µM: 113%
